Laboratory results from patent publication US20240376084A1, “INHIBITORS OF ALPHA-HEMOLYSIN OF STAPHYLOCOCCUS AUREUS” (Helmholtz-Zentrum Fur Infektionsforschung GmbH, priority 2021, published 2024).

How the values were obtained:
[1] = molecular target: hemolysin alpha from Staphylococcus aureus (Staphylococcus aureus, UniProt P09616); experiment: cell-based
[2] = molecular target: S. aureus Alpha hemolysin (Staphylococcus aureus, UniProt P09616); experiment: cell-based; conditions: A549-LDH Assay activity
S. aureus Alpha hemolysin, sequence (P09616 27-319 limits assumed): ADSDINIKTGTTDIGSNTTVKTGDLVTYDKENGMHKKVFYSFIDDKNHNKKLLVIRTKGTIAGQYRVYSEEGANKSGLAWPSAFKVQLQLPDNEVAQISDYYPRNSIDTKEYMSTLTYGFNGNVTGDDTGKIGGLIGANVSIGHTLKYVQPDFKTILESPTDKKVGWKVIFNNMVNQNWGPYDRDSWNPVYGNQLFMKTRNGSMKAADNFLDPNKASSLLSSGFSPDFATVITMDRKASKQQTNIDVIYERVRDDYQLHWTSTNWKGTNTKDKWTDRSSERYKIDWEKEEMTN

hemolysin alpha from Staphylococcus aureus, sequence (P09616 27-319 limits assumed): as above

Row | SMILES | IC50 [1] | EC50 [2]
1 | Cc1cc2[nH]c(=O)c(=O)[nH]c2cc1S(=O)(=O)Nc1ccc(-c2ccncc2)cc1 [Compound 127, 7-methyl-2,3-dioxo-N-(4-(pyridin-4-yl)phenyl)-1,2,3,4-tetrahydroquinoxaline-6-sulfonamide] | 100 to 1000 nM | 100 to 1000 nM
2 | Cc1cc2[nH]c(=O)c(=O)[nH]c2cc1S(=O)(=O)Nc1ccc(N2CCOCC2)c(Br)c1 [Compound 128, N-(3-bromo-4-morpholinophenyl)-7-methyl-2,3-dioxo-1,2,3,4-tetrahydroquinoxaline-6-sulfonamide] | 100 to 1000 nM | 100 to 1000 nM
3 | C#Cc1ccc(NS(=O)(=O)c2cc3[nH]c(=O)c(=O)[nH]c3cc2C)cc1 [Compound 130, N-(4-ethynylphenyl)-7-methyl-2,3-dioxo-1,2,3,4-tetrahydroquinoxaline-6-sulfonamide] | 100 to 1000 nM | 100 to 1000 nM
4 | Cc1cc2[nH]c(=O)c(=O)[nH]c2cc1S(=O)(=O)Nc1cc(C)c(-c2sccc2C)c(C)c1 [Compound 132, N-(3,5-dimethyl-4-(3-methylthiophen-2-yl)phenyl)-7-methyl-2,3-dioxo-1,2,3,4-tetrahydroquinoxaline-6-sulfonamide] | 100 to 1000 nM | 100 to 1000 nM
5 | CCc1ccccc1-c1c(C)cc(NS(=O)(=O)c2cc3[nH]c(=O)c(=O)[nH]c3cc2C)cc1C [Compound 134, N-(2′-ethyl-2,6-dimethyl-[1,1′-biphenyl]-4-yl)-7-methyl-2,3-dioxo-1,2,3,4-tetrahydroquinoxaline-6-sulfonamide] | 100 to 1000 nM | 30 to 100 nM
6 | Cc1cc2[nH]c(=O)c(=O)[nH]c2cc1S(=O)(=O)Nc1cc(C)c(-c2cc[nH]c2)c(C)c1 [Compound 135, N-(3,5-dimethyl-4-(1H-pyrrol-3-yl)phenyl)-7-methyl-2,3-dioxo-1,2,3,4-tetrahydroquinoxaline-6-sulfonamide] | 100 to 1000 nM | 100 to 1000 nM
7 | Cc1cc2[nH]c(=O)c(=O)[nH]c2cc1S(=O)(=O)Nc1ccc(-c2ccccc2N(C)C)c(Cl)c1 [Compound 136, N-(2-chloro-2′-(dimethylamino)-[1,1′-biphenyl]-4-yl)-7-methyl-2,3-dioxo-1,2,3,4-tetrahydroquinoxaline-6-sulfonamide] | 100 to 1000 nM | 100 to 1000 nM
8 | Cc1cc2[nH]c(=O)c(=O)[nH]c2cc1S(=O)(=O)Nc1ccc(N2CCCC2)cc1 [Compound 137, 7-methyl-2,3-dioxo-N-(4-(pyrrolidin-1-yl)phenyl)-1,2,3,4-tetrahydroquinoxaline-6-sulfonamide] | 100 to 1000 nM | 30 to 100 nM
9 | CCOC(=O)c1ccccc1-c1ccc(NS(=O)(=O)c2cc3[nH]c(=O)c(=O)[nH]c3cc2C)cc1Cl [Compound 138, ethyl 2′-chloro-4′-((7-methyl-2,3-dioxo-1,2,3,4-tetrahydroquinoxaline)-6-sulfonamido)-[1,1′-biphenyl]-2-carboxylate] | 1000 to 3500 nM | 1000 to 6000 nM
10 | Cc1cc2[nH]c(=O)c(=O)[nH]c2cc1S(=O)(=O)Nc1ccc(-c2ccccc2C(F)(F)F)c(Cl)c1 [Compound 139, N-(2-chloro-2′-(trifluoromethyl)-[1,1′-biphenyl]-4-yl)-7-methyl-2,3-dioxo-1,2,3,4-tetrahydroquinoxaline-6-sulfonamide] | 100 to 1000 nM | 1000 to 6000 nM
11 | Cc1cc(-c2ccc(NS(=O)(=O)c3cc4[nH]c(=O)c(=O)[nH]c4cc3C)cc2Cl)ccn1 [Compound 140, N-(3-chloro-4-(2-methylpyridin-4-yl)phenyl)-7-methyl-2,3-dioxo-1,2,3,4-tetrahydroquinoxaline-6-sulfonamide] | 100 to 1000 nM | 100 to 1000 nM
12 | Cc1cc(NS(=O)(=O)c2cc3[nH]c(=O)c(=O)[nH]c3cc2Cl)ccc1Br [Compound 141, N-(4-bromo-3-methylphenyl)-7-chloro-2,3-dioxo-1,2,3,4-tetrahydroquinoxaline-6-sulfonamide] | 100 to 1000 nM | 100 to 1000 nM
